The text below walks through data of article PMC8578629, “Photoactivated cell-killing amino-based flavylium compounds” (Scientific Reports, 2021).

Structures are written as SMILES.

Data set [1] has as its system HaCaT cells. Nature of the data set: Cellular photoactivation assay (white light or dark, Alamar Blue). Format: cell-based, human. How it is done: A white light LED homemade device prototype has 96 LEDs appropriately arranged on a plate of 13 cm length × 8 cm width, with a distance from the microplate surface of 8 cm. The prototype has an irradiance of 21 W m^−2 and a wavelength range of 408–707 nm (Fig. S4).
For the cellular photoactivation assays, the white light source of 21 W m^−2 was used. Briefly, cells were seed at a density of 4 × 10^4 cells/mL onto 96 –well plates and after 24 h the compounds were added to the plates in different concentrations (6.25–100 μM) and incubated for a period of 4 h at 37 °C in an atmosphere of 5% CO2 and in the presence of DMEM with 2% FBS. After this period, the medium with the compounds was removed and fresh medium (DMEM with 2% FBS without phenol red (DMEM_2% FBS_w/o_PR) was added to cells. Following this procedure, cells were submitted to light irradiation, the selected light source at a height of 8 cm, in a chamber designed to ensure the same light quantity for each well during the treatment. Cells were irradiated for 10 min at an intensity of 50%, at room temperature (making a total energy exposition of 6.6 J cm^−2). The dark treatment was prepared by placing the plates for 10 min in a dark box at room temperature. After this, the 96 well plates were placed in an incubator at 37 °C in an atmosphere of 5% CO2 for 24 h. Then, to determine cell survival the Alamar Blue assay was performed as follows: after the 24 h, 20 μL of a solution of Resazurin (0.15 mg mL^−1 in PBS filtered in 0.22 μm filters) were added to each well (making a total volume of 120 μL per well), and the plates were incubated between 4–6 h (until the development of visible color change from violet to pink). The fluorescence intensity of each well was then determined at 560/590 nm (ex/em) (FlexStation 3 Multi-Mode Microplate Reader).
In general terms: The colour change of resazurin is a common sign of viable cells or microbes.

Data set [2] can be described thus: Molar absorption coefficient (ɛ) at 630 nm. The data set is classed as physicochemical. As for the experimental part:
The molar extinction coefficient or molar absorption (ɛ), of all synthesized pigments was determined in three different solvents (ethanol, methanol and DMSO). For each pigment, in each solvent, a range of concentrations was prepared and then the spectrum of each solution was read. Finally, the respective absorbances (collected at 630 nm) were represented as a function of concentration and the ɛ value was taken from the slope value of the equation curve.

A short description of data set [3]: Oxygen singlet production by Singlet Oxygen Sensor Green assay. To be noted: for ^1O2 production: compound 25 μM, after white light irradiation 79.2 J cm^−2. How it is done: The production of singlet oxygen by the different amino-based compounds in solution was determined as follows: a stock solution of Singlet Oxygen Sensor Green was prepared at 5 mM in methanol (MeOH). Working solutions of the probe were prepared at 2 mM in 100 mM pH 7.5 Tris buffer and in 100 mM pH 7.5 Tris buffer with 10 mM of Sodium Azide. The compounds were then prepared at a stock concentration of 500 μM and the working solutions were prepared in 100 mM pH 7.5 Tris buffer and in 100 mM pH 7.5 Tris buffer with 10 mM of Sodium Azide. 1 μL of Singlet Oxygen Sensor Green working solutions and 100 μL of compounds solution were mixed to a final volume of 1000 μL (in 100 mM pH 7.5 Tris buffer or in 100 mM pH 7.5 Tris buffer with 10 mM of Sodium Azide). 100 μL of each solution was then added to a 96-well black plate and 100 μL of Deuterium Oxide was added for a final concentration of 1 μM Singlet Oxygen Sensor Green and 25 μM for the different amino-based compounds. The fluorescence was then registered in a spectrofluorometer using excitation/emission of 488/525 nm. After this procedure, the wells were irradiated with a white light source with a total of 79.2 J cm^−2, corresponding to a total irradiation time of 1 h (6 pulses of 10 min) and then, the fluorescence determined using the same excitation/emission pair. As a positive control, Methylene Blue was used at a final concentration of 10 μM. The oxygen singlet production methodology was performed in a dark room.

The test system of data set [4] is HaCaT cells. Briefly: Reactive oxygen species production (DCF-DA). Format: cell-based, human. Particulars: 25 μM, 6.6 J cm^−2, versus control cells. As for the experimental part:
Cells reactive oxygen species (ROS) production was evaluated following the standard method. Briefly, cells were seed at a density of 4 × 10^4 cells/mL onto 96 well plates and after 24 h the compounds were added at 25 μM (non-toxic concentration) and the same previous procedure for the photoactivation assays was followed. After that, cells were washed twice in Hank’s Buffered Saline Solution (HBSS) and incubated with 100 μL of 50 μM 2′,7′-dichlorodihydrofluorescein diacetate (DCF‐DA) for 30 min in the same previous conditions. For positive control, cells were treated with 100 μM H2O2 for 30 min prior to the addition of DCF-DA. Cells were then washed twice with HBSS and incubated with fresh DMEM medium for 24 h. After this period, the fluorescence intensity at […] (ex/em) was determined in a FlexStation 3 Multi-Mode Microplate Reader.

Data set [5] is described as follows: Fluorescence quantum yield by the absolute method (integrating sphere). The data set is classed as physicochemical. Particulars: in DMSO. How it is done: Based on the absorbance maxima of the different compounds (Fig. S2), the measurement of the quantum yield (QY) of the synthesized flavylium derivatives was performed using a calibrated Quantaurus-QY stand-alone integrating sphere setup C11347-11 (Hamamatsu Photonics, Hamamatsu, Japan) equipped with an integration sphere, a monochromator, a spectrograph, a 150 W xenon light source and a silicon charge coupled device. Each compound was dissolved in DMSO and diluted to ensure an absorbance of 0.1 from the λmax of excitation forward. Each compound was then irradiated at the corresponding wavelength and the absolute quantum yield determined. The fluorescence spectra was also recorded (Fig. S3). For each compound, four independent experiments were performed.

The nature of data set [6]: MTT cytotoxicity assay, fibroblasts. To be noted: human, HFF-1 cells (fibroblasts), HFF-1, proliferation condition, dark. Format: cell-based. As for the experimental part:
(§1) The cytotoxicity of amino-based flavylium compounds to HFF-1 (ATCC Number: SCRC-1041) and HaCaT cells was evaluated using the standard MTT assay. Briefly, cells were seeded at a density of 8 × 10^5 and 4 × 10^4 cells/mL, respectively, in 96-well plate and incubated at 37 °C in a 5% CO2 atmosphere. Cells were allowed to grow for 24 h or until reaching monolayer confluency, and serially diluted compound solutions (6.3–100 µM) were added to the plate wells. The stock solutions of each compound were prepared at 200 mM in DMSO, the maximum % of DMSO in the cells was 0.05%. Then, cells were incubated for 48 h at 37 °C, after which the plate wells were washed once with phosphate buffered saline (PBS, Sigma-Aldrich), followed by addition of a 0.45 mg/mL MTT solution to each well. Crystals were allowed to form for 1.5 h. The reaction was stopped by rejecting the medium followed by the addition of 100 µL of DMSO (Sigma-Aldrich). The absorbance was read at 570 nm in FlexStation 3 Multi-Mode Microplate Reader (Molecular Devices, California, USA).
In general terms: Tetrazolium assays rely on reduction of a dye to a coloured formazan, in cell work by metabolically active cells.

The nature of data set [7]: MTT cytotoxicity assay, keratinocytes. To be noted: human, HaCaT cells (keratinocytes), dark. The data set is classed as cell-based. How it is done: as §1

As to `CN(C)c1ccc(/C=C/c2ccc3c(O)cc(O)cc3[o+]2)cc1` [5,7OHst4′NMe2, 5,7-dihydroxy-2-(4′-dimethylaminostyryl)-benzopyrylium], in the data set with HaCaT cells [1] (4 h incubation, 6.25–100 μM applied, dark), the “Dark cytotoxicity to HaCaT cells (in words)” value is “did not present significant effects”. Further, the “Photoactivation, dark versus white light (in words)” value in the data set on HaCaT cells [1] (4 h incubation, 6.25–100 μM applied, white light 6.6 J cm^−2) is on record as “not photoactivated”. Further, the “Molar absorption coefficient ɛ at 630 nm” value in data set [2] (DMSO) is recorded as 15,224 M^−1 cm^−1; in data set [2] (Ethanol), 16,422 M^−1 cm^−1; in data set [2] (Methanol), 15,224 M^−1 cm^−1. Moreover, the “^1O2 production” value in data set [3] was “non-significant enhancement”. For the same compound, the “ROS production upon white light irradiation (in words)” value in the data set with HaCaT cells [4] is listed as “did not modulate the production of ROS”. Further, the “Quantum yield of fluorescence (Φf), mean ± SD” value in data set [5] is listed as “undetectable”.
Consider `CN(C)c1ccc(-c2ccc3c(O)cccc3[o+]2)cc1` [5OH4′NMe2, 5-hydroxy-4′-(dimethylamino)-benzopyrylium], for which the “Reduction of cell survival upon light irradiation” value in the data set on HaCaT cells [1] (applied concentration 6.25 and 12.5 μΜ) was “less than 20%”. The Cell survival in the data set on HaCaT cells [1] (either in the presence or absence of light, highest concentration tested) came out at 40%. Besides, the “^1O2 production” value in data set [3] is “non-significant enhancement”. Besides, the “ROS production upon white light irradiation (in words)” value in the data set on HaCaT cells [4] is recorded as “significantly increased”. In addition, the IC50 – broadly, the point on the concentration scale where inhibition reaches its midpoint – at 48 h turned out to be 47.25 ± 0.21 µM in data set [6], 47.3 ± 0.3 µM in data set [7] (monolayer confluence) and 14.9 ± 0.1 µM in data set [7] (proliferation). For the same compound, the “Quantum yield of fluorescence (Φf), mean ± SD” value in data set [5] is reported as “undetectable”.
Turning to `CN(C)c1ccc2nc3ccc(=[N+](C)C)cc-3sc2c1` [methylene blue, Methylene Blue, reference compound], the “^1O2 production yield, times higher (positive control)” value in data set [3] (10 μM, same amount of light irradiation) is on record as “about 5 fold”.
